Literature values in patent publication US7915270B2, “Oxazole ketones as modulators of fatty acid amide hydrolase” (The Scripps Research Institute, priority 2006, dated 2011).

Experiments:
spasticity = details: Baker 2001; cited from earlier work
thermal nociception = details: rat; Kathuria 2003; cited from earlier work
[1] = rat; Kathuria 2003; cited from earlier work
anxiety = details: rats; Kathuria 2003; cited from earlier work

| Structure (SMILES) | spasticity in CREAE mice (spasticity) | analgesic efficacy in the hot plate test (thermal nociception) | analgesic efficacy in the formalin test [1] | efficacy in the zero plus maze model of anxiety (anxiety) |
| --- | --- | --- | --- | --- |
| CCCCCCCCCCCCCCCCS(=O)(=O)F [AM374] | significantly reduce spasticity |  |  |  |
| NC(=O)c1cccc(-c2cccc(OC(=O)NC3CCCCC3)c2)c1 [URB-597] |  | analgesic efficacy | analgesic efficacy | efficacy |
